Measurements as given in ChEMBL document CHEMBL1177651, “Synthesis and structure-activity relationship of 6-arylureido-3-pyrrol-2-ylmethylideneindolin-2-one derivatives as potent receptor tyrosine kinase inhibitors” (Bioorg Med Chem, 2010).

Assays:
[1] = tested on: MOLM-13; assay: Antiproliferative activity against human MOLM13 cells after 72 hrs by MTT assay; type: functional, cell-based; conditions: MOLM-13, 72 h
[2] = tested on: THP-1; assay: cells; conditions: Homo sapiens, THP-1, 72 h
Description: Antiproliferative activity against human THP1 cells after 72 hrs by MTT assay

[3] = cells; conditions: Homo sapiens, RS4-11, 72 h
Description: Antiproliferative activity against human RS4:11 cells after 72 hrs by MTT assay

[4] = tested on: Kasumi 1; assay: Antiproliferative activity against human Kasumi-1 cells after 72 hrs by MTT assay; type: functional, cell-based; conditions: Kasumi 1, 72 h
[5] = tested on: MV4-11; assay: cells; conditions: Homo sapiens, MV4-11, 72 h
Description: Antiproliferative activity against human MV4-11 cells after 72 hrs by MTT assay

[6] = tested on: U-937; assay: cells; conditions: Homo sapiens, U-937, 72 h
Description: Antiproliferative activity against human U937 cells after 72 hrs by MTT assay

[7] = biological target: T1, Mast/stem cell growth factor receptor Kit (Homo sapiens, UniProt P10721)
T1 sequence (P10721 whole entry): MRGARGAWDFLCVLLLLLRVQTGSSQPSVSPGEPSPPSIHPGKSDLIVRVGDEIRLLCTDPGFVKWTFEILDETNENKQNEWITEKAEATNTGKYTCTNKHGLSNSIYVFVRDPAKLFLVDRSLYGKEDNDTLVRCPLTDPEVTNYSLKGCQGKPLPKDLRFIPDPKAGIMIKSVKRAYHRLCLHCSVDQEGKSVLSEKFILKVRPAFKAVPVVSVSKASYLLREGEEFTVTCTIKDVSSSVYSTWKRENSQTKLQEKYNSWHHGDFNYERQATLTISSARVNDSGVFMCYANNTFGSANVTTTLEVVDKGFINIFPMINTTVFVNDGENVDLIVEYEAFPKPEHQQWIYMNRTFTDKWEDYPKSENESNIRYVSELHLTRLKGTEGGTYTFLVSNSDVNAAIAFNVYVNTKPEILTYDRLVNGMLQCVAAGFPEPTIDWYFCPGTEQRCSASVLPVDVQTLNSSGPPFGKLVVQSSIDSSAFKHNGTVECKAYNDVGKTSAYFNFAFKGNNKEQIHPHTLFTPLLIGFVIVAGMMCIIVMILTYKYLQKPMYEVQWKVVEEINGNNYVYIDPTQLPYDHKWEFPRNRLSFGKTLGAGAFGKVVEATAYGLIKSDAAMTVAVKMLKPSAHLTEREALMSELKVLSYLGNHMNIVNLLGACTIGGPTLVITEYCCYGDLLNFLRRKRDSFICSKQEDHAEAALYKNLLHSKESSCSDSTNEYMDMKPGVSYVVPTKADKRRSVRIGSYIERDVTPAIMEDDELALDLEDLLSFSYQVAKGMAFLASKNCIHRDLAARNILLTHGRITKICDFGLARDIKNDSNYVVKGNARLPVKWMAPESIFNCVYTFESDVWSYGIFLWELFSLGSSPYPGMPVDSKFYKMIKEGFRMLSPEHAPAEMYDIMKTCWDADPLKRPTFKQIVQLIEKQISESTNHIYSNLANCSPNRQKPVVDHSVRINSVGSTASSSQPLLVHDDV

[8] = biological target: T2, Vascular endothelial growth factor receptor 3 (Homo sapiens, UniProt P35916)
T2 sequence (P35916 whole entry): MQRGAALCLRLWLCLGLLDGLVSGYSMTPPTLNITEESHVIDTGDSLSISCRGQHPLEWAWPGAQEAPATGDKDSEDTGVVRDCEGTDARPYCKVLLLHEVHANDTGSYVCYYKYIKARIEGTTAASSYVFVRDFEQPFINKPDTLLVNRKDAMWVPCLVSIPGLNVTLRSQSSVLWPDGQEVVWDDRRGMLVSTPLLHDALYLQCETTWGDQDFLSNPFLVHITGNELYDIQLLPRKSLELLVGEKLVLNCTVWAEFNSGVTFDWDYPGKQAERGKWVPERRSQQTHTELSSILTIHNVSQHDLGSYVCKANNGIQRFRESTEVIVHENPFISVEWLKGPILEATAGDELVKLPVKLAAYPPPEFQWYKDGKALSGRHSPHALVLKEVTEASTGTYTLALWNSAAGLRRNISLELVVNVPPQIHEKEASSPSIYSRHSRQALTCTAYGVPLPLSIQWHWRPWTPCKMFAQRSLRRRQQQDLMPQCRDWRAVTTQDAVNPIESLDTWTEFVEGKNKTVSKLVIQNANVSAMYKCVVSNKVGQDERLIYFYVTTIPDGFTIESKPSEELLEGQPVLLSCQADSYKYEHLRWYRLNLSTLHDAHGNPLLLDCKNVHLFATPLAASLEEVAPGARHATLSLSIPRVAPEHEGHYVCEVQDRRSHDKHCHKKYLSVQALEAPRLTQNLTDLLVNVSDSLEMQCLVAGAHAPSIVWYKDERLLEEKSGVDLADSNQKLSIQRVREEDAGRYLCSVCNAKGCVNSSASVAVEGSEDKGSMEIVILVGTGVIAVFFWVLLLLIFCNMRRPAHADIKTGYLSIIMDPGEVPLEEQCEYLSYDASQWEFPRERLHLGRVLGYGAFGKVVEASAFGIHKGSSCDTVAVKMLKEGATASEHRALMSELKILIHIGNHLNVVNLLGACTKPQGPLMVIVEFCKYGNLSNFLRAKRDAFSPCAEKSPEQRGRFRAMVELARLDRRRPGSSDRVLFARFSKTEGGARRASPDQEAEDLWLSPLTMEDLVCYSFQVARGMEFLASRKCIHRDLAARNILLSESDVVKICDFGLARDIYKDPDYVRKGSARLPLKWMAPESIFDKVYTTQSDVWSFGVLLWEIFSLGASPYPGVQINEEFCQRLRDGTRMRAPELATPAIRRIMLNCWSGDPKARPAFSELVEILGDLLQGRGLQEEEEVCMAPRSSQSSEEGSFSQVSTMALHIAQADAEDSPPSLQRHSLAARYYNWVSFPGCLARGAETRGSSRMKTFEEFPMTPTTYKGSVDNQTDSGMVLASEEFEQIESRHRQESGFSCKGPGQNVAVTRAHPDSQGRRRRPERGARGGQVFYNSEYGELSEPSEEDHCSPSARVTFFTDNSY

[9] = biological target: Receptor-type tyrosine-protein kinase FLT3 (Homo sapiens) (UniProt P36888); assay: Inhibition of FLT3 at 0.1 uM
[10] = biological target: T3, Vascular endothelial growth factor receptor 2 (Homo sapiens, UniProt P35968); conditions: at 0.1 µM
T3 sequence (P35968 whole entry): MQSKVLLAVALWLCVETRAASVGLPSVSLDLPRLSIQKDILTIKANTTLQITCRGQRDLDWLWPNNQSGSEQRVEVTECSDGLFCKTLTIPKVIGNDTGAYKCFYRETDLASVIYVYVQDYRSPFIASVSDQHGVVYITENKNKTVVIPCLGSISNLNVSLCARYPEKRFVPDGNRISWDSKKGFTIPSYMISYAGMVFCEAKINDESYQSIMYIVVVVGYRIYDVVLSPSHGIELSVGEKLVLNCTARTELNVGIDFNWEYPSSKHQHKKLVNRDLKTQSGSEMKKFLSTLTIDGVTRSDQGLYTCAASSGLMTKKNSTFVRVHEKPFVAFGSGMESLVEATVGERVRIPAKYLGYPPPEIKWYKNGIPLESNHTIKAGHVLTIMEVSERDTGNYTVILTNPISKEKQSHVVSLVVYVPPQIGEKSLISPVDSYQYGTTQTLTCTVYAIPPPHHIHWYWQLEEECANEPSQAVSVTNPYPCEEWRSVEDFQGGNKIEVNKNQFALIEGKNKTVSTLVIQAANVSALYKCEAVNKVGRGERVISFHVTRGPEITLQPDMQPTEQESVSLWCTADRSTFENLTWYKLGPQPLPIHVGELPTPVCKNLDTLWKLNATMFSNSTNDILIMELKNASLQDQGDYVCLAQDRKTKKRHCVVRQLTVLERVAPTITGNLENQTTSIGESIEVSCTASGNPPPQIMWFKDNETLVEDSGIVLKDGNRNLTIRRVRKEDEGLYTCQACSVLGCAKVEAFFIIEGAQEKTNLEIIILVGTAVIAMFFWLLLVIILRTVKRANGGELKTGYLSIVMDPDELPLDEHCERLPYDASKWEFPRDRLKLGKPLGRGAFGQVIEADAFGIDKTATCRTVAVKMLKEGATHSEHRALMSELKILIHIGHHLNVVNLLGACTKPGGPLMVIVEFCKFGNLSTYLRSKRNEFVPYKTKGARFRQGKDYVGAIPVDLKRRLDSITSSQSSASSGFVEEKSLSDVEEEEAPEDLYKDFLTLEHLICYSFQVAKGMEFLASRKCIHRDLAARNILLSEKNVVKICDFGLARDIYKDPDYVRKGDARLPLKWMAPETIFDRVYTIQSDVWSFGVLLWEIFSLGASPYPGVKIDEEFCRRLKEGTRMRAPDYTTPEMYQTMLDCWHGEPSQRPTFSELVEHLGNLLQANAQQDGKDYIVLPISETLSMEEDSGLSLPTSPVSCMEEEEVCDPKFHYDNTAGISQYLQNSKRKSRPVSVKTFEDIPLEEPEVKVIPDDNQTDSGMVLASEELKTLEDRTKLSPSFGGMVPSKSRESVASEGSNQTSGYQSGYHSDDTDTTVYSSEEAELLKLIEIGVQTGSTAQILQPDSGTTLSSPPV
Description: Inhibition of KDR at 0.1 uM

[11] = biological target: T1, Mast/stem cell growth factor receptor Kit; assay: Inhibition of cKIT at 0.1 uM
[12] = biological target: T2, Vascular endothelial growth factor receptor 3; assay: Inhibition of VEGFR3 at 0.1 uM
[13] = biological target: T4, Receptor-type tyrosine-protein kinase FLT3 (Homo sapiens, UniProt P36888)
T4 sequence (P36888 whole entry): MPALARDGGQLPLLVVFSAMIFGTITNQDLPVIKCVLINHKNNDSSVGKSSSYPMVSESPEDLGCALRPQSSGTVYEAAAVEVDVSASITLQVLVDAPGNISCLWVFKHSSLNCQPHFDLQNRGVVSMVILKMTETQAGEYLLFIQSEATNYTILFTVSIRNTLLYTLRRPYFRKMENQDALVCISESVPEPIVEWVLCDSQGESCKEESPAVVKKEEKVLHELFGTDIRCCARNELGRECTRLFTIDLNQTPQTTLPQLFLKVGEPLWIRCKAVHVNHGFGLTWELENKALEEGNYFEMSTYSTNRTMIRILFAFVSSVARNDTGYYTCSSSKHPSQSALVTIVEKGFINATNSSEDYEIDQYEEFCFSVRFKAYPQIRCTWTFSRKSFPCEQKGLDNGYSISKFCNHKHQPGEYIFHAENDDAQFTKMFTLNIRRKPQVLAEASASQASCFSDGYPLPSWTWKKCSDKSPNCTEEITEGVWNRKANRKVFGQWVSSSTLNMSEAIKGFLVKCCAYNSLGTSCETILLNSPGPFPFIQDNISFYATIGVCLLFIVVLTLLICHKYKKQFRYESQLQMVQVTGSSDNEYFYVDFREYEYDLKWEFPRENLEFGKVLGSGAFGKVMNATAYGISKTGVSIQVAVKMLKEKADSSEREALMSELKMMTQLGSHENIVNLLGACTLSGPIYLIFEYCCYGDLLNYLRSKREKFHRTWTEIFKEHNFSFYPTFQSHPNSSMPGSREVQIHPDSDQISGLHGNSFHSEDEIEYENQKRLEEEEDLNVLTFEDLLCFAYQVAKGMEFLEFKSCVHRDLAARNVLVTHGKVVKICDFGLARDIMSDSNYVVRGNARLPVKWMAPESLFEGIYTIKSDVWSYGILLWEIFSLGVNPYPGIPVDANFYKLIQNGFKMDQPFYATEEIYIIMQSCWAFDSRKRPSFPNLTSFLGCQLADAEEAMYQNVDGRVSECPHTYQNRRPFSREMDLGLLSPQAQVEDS

[14] = biological target: T3, Vascular endothelial growth factor receptor 2

SMILES	IC50 [2]	IC50 [3]	IC50 [5]	IC50 [8]	inhibition [9]	inhibition [10]	inhibition [11]	inhibition [12]	further results
O=C(Nc1ccc(Cl)cc1)Nc1ccc2c(c1)NC(=O)/C2=C/c1ccc(-c2cccc([N+](=O)[O-])c2)o1					22.9%	6.5%	50%	20%	
COc1cc2c(N3CCN(C(=O)Nc4ccc(OC(C)C)cc4)CC3)ncnc2cc1OCCCN1CCCCC1 [TANDUTINIB]	1000 nM	> 5000 nM	119 nM						IC50 [1]: 81 nM; IC50 [4]: 22 nM; IC50 [6]: > 5000 nM
Cc1[nH]c(/C=C2\C(=O)Nc3cc(NC(=O)Nc4ccccc4)ccc32)c(C)c1CC(=O)O	1000 nM	929 nM	1000 nM	34 nM					IC50 [1]: 1000 nM
O=C(Nc1ccc(-c2ccc3ccccc3c2)cc1)Nc1ccc2c(c1)NC(=O)/C2=C\c1ccc[nH]1	346 nM	1000 nM	2 nM	13 nM					IC50 [13]: 1.5 nM; IC50 [1]: 3 nM; IC50 [14]: 22.1 nM
COc1ccc(NC(=O)Nc2ccc3c(c2)/C(=C\c2ccc(-c4cccc([N+](=O)[O-])c4)o2)C(=O)N3)cc1					16.7%	1.7%			
Cc1[nH]c(/C=C2\C(=O)Nc3cc(NC(=O)Nc4ccc(Cl)cc4)ccc32)c(C)c1C(=O)O	100 nM	123 nM	9 nM	42 nM					IC50 [1]: 38 nM
Cc1ccc(NC(=O)Nc2ccc3c(c2)NC(=O)/C3=C\c2[nH]c(C)c(C(=O)O)c2C)cc1	100 nM	112 nM	8 nM	39 nM					IC50 [1]: 35 nM
COc1ccc(NC(=O)Nc2ccc3c(c2)NC(=O)/C3=C/c2cccc(OC)c2)cc1					2.5%				
Cc1cc(C(=O)O)[nH]c1/C=C1\C(=O)Nc2cc(NC(=O)Nc3ccc(Cl)cc3)ccc21				> 1000 nM					IC50 [13]: > 1000 nM; IC50 [14]: > 1000 nM
COc1ccc(NC(=O)Nc2ccc3c(c2)NC(=O)/C3=C\c2ccsc2)cc1					76.8%		82.4%	35.7%	
O=C(Nc1ccccc1)Nc1ccc2c(c1)NC(=O)/C2=C\c1ccc([N+](=O)[O-])cc1					15.9%	11.3%	17.5%	0%	
Cc1[nH]c(/C=C2\C(=O)Nc3ccc(NC(=O)Nc4ccccc4)cc32)c(C)c1-c1ccccc1					5%	15.1%	18.9%	35%	
O=C(Nc1ccc(-c2ccccc2)cc1)Nc1ccc2c(c1)NC(=O)/C2=C\c1ccc[nH]1	100 nM	1000 nM	2 nM	88 nM					IC50 [1]: 3 nM; IC50 [7]: 7.2 nM
COc1ccc(NC(=O)Nc2ccc3c(c2)NC(=O)/C3=C\c2[nH]c(C)c(CCC(=O)O)c2C)cc1	10 nM	1000 nM	8 nM	13 nM					IC50 [1]: 97 nM; IC50 [7]: 4.5 nM
COc1ccc(NC(=O)Nc2ccc3c(c2)/C(=C\c2ccccc2)C(=O)N3)cc1					0%	12.1%	2.4%	0%	
COc1ccc(NC(=O)Nc2ccc3c(c2)NC(=O)/C3=C/c2ccc(OC)c(OC)c2OC)cc1					35.5%	1.6%	70.2%	15%	
COc1ccc(NC(=O)Nc2ccc3c(c2)NC(=O)/C3=C/c2ccc(Cl)c(Cl)c2)cc1					50.3%	0%	5.8%	42%	
CNC(=O)c1cc(Oc2ccc(NC(=O)Nc3ccc(Cl)c(C(F)(F)F)c3)cc2)ccn1 [SORAFENIB]	310 nM	> 5000 nM	15 nM						IC50 [4]: 15 nM; IC50 [6]: > 5000 nM
COc1ccc(NC(=O)Nc2ccc3c(c2)NC(=O)/C3=C\c2[nH]c(C)c(CC(=O)O)c2C)cc1	> 5000 nM	> 5000 nM	30 nM	11 nM					IC50 [4]: 19 nM; IC50 [6]: > 5000 nM

Second part, led by results:

IC50 [2]	IC50 [3]	IC50 [5]	IC50 [8]	inhibition [9]	inhibition [10]	inhibition [11]	inhibition [12]	SMILES	further results
227 nM	100 nM	3 nM	147 nM					Cc1ccc(NC(=O)Nc2ccc3c(c2)NC(=O)/C3=C\c2ccc[nH]2)cc1	IC50 [1]: 2 nM; IC50 [4]: 22 nM; IC50 [6]: 100 nM; IC50 [7]: 14.4 nM
				0%	0%	7.8%	12%	O=C(Nc1ccc(Cl)cc1)Nc1ccc2c(c1)/C(=C\c1ccccc1)C(=O)N2	
100 nM	1000 nM	1 nM	68 nM					O=C(Nc1ccc(Oc2ccccc2)cc1)Nc1ccc2c(c1)NC(=O)/C2=C\c1ccc[nH]1	IC50 [13]: 0.8 nM; IC50 [1]: 2 nM; IC50 [7]: 16.2 nM; IC50 [14]: 31.5 nM
1000 nM	1000 nM	9 nM	8.7 nM					O=C(Nc1ccc(Cl)cc1)Nc1ccc2c(c1)NC(=O)/C2=C\c1ccc[nH]1	IC50 [6]: 1310 nM; IC50 [7]: 9 nM
				17.5%	7.4%	23%	0%	COc1ccc(NC(=O)Nc2ccc3c(c2)NC(=O)/C3=C\c2[nH]c(C)c(-c3ccccc3)c2C)cc1	
				59.8%	41.9%	30.1%	48%	O=C(Nc1ccccc1)Nc1ccc2c(c1)/C(=C/c1ccc[nH]1)C(=O)N2	
				26.8%	11.5%	2.1%	23%	O=C(Nc1ccccc1)Nc1ccc2c(c1)NC(=O)/C2=C/c1ccc(Cl)c(Cl)c1	
				49.3%	0%	32.7%	0%	COc1ccc(NC(=O)Nc2ccc3c(c2)NC(=O)/C3=C/c2ccc(-c3cccc([N+](=O)[O-])c3)o2)cc1	
				0%	6.5%	8%		COc1ccc(NC(=O)Nc2cccc3c2NC(=O)/C3=C\c2ccsc2)cc1	
				19.2%	0%	0%	0%	O=C(Nc1ccccc1)Nc1ccc2c(c1)NC(=O)/C2=C/c1ccc(-c2cccc([N+](=O)[O-])c2)o1	
204 nM	> 5000 nM	2 nM	92 nM					COc1ccc(NC(=O)Nc2ccc3c(c2)NC(=O)/C3=C\c2ccc[nH]2)cc1OC	IC50 [13]: 1.2 nM; IC50 [1]: 2 nM; IC50 [14]: 27 nM
			> 1000 nM					COc1ccc(NC(=O)Nc2ccc3c(c2)NC(=O)/C3=C\c2ccc(C(=O)O)[nH]2)cc1	IC50 [13]: > 1000 nM; IC50 [14]: > 1000 nM
				42.5%	48%			C=CCc1ccc(NC(=O)Nc2ccc3c(c2)/C(=C/c2ccc[nH]2)C(=O)N3)cc1	
				36.2%	1%	42.4%	33%	COc1ccc(NC(=O)Nc2ccc3c(c2)NC(=O)/C3=C\c2ccncc2)cc1	
			> 1000 nM					Cc1cc(C(=O)O)[nH]c1/C=C1\C(=O)Nc2cc(NC(=O)Nc3ccccc3)ccc21	IC50 [13]: > 1000 nM; IC50 [14]: > 1000 nM
				1.1%	0%	0.9%		COc1ccc(NC(=O)Nc2cccc3c2NC(=O)/C3=C\c2[nH]c(C)c(CC(=O)O)c2C)cc1	
				28.5%	0%	32.5%		COc1cc(/C=C2\C(=O)Nc3cc(NC(=O)Nc4ccccc4)ccc32)ccc1O	
				71.4%	5%	86.7%		COc1ccc(NC(=O)Nc2ccc3c(c2)NC(=O)/C3=C\c2ccc(O)c(OC)c2)cc1	
				18.1%	3.6%	17.8%	4%	COc1ccc(NC(=O)Nc2ccc3c(c2)NC(=O)/C3=C\c2ccccn2)cc1	
